The text below walks through data of PubChem BioAssay (NCI).

Test systems include KM12 colon; SK-MEL-28 melanoma; SK-MEL-2 melanoma; RXF 393 renal; HCT-116 colon; T-47D breast; OVCAR-3 ovarian; A498 renal; OVCAR-4 ovarian; HCT-15 colon.
Holding throughout (test): NCI-60 cell line screen, 48 h

Each structure is given as a SMILES string.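 Protocol summary: plate cells (96-well), add compound at 5 concentrations, incubate 48 h, interpolate endpoints linearly. Abbreviation: GI50, concentration required for 50% inhibition of growth. TGI: total growth inhibition.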 Where only a bound is given, the exact number is not on record here.

Turning to `COc1ccc2c(c1)[nH]c(=O)c1c3cc(OC)c(OC)cc3cn21`, the GI50 was less than 10 nM in the assay with KM12 colon; less than 10 nM in the assay on SK-MEL-28 melanoma; 30.3 nM with SK-MEL-2 melanoma; less than 10 nM in the assay on RXF 393 renal; less than 10 nM in the assay with HCT-116 colon; 15400 nM with T-47D breast. Also, the GI50 with OVCAR-3 ovarian is less than 10 nM; in the assay with A498 renal, less than 10 nM; in the assay on OVCAR-4 ovarian, 38.4 nM; in the assay on HCT-15 colon, less than 10 nM. Besides, the TGI amounted to 292 nM in the assay with KM12 colon; 18200 nM in the assay on SK-MEL-28 melanoma; 20800 nM in the assay with SK-MEL-2 melanoma; 1890 nM in the assay on RXF 393 renal; 1190 nM in the assay on HCT-116 colon; 35600 nM with T-47D breast. The TGI was less than 10 nM in the assay on OVCAR-3 ovarian, 72 nM with A498 renal, 4720 nM with OVCAR-4 ovarian and 1190 nM in the assay with HCT-15 colon.

`Cc1ccc2nc3c(n2c1)C(=O)C(=O)c1ccccc1-3`: the GI50 in the assay on KM12 colon was 574 nM; with SK-MEL-28 melanoma it was 189 nM; in the assay on SK-MEL-2 melanoma, 293 nM; in the assay with RXF 393 renal it was 227 nM; with HCT-116 colon, 188 nM; in the assay on T-47D breast, 389 nM. Besides, the GI50 in the assay on OVCAR-3 ovarian is 285 nM; in the assay with A498 renal, 1370 nM; with OVCAR-4 ovarian it was 210 nM; with HCT-15 colon, 170 nM. In addition, the TGI in the assay on KM12 colon turned out to be 8280 nM; in the assay on SK-MEL-28 melanoma, 343 nM; in the assay with SK-MEL-2 melanoma, 849 nM; in the assay with RXF 393 renal, 10200 nM; with HCT-116 colon it was 1090 nM; with T-47D breast it was 1740 nM. In addition, the TGI with OVCAR-3 ovarian came out at 1070 nM; in the assay on A498 renal, 2710 nM; in the assay on OVCAR-4 ovarian it was 537 nM; in the assay on HCT-15 colon it was 416 nM.
